Columns and labels:
HDV [1] = test: HDV infection in primary human hepatocytes (PHHs) and RNA quantification (RT-qPCR); format: cell-based; details: Hepatocyte, 192 h, HDV infection of primary human hepatocytes, viral RNA at day 8 post infection
Description: Primary human hepatocytes (Thermo Fisher Scientific) were thawed in Williams E Medium with CM3000 supplement pack (Thermo Fisher Scientific) and seeded at 70,000 cells/well on collagen-coated 96-well plate. Six hours post-seeding, cell medium was changed to Williams E Medium with CM4000 cell maintenance supplement pack for further culture (Thermo Fisher Scientific). HDV virus collected from the supernatants of HuH7-END cells was purified in the presence of 6% polyethylene glycol (PEG). Viral titer was then quantified by RT-qPCR using HDV specific primers against a reference standard. On the day of infection, compounds were 4-fold serially diluted in DMSO and pre-incubated with PHHs for two hours before infecting with 100 GE/cell of HDV in 4% PEG. On day one post infection, HDV-containing media was aspirated, cells were washed once with PBS and then maintained in 2.5% DMSO containing media for the remainder of the assay. Viral RNA was isolated using RNeasy kits at day 8 post infection and reverse transcribed into cDNA using High-Capacity RNA-to-cDNA Kit. Relative HDV gene expression was quantified by RT-qPCR after normalization to expression of a housekeeping gene. Irrespective of readout, compound concentrations that reduce viral RNA by 50% relative to DMSO controls (EC50) are reported. EC50 ranges are as follows: A<0.1 μM; B 0.1-1 μM; C>1 μM.

HBV = HBV infection in HepG2-NTCP cells (HBeAg AlphaLISA in supernatants); format: cell-based; details: Hepatitis B virus, 192 h; HBV infection of HepG2-NTCP cells; HBeAg in supernatants at day 8 post infection; read-out: Cellular EC50
Outline: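 HepG2-NTCP A3 cells were pre-incubated 2 h with 3-fold serially diluted compounds, then infected with HBV at 2000 GE/cell with 4% PEG (0.5% DMSO final). After washing on day 1, cells stayed in 2.5% DMSO medium; supernatant HBeAg measured by AlphaLISA on day 8, EC50 versus DMSO controls.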

HDV [2] = test: HDV infection in HepG2-NTCP cells and RNA quantification (RT-qPCR); format: cell-based; details: 288 h; HDV infection of HepG2-NTCP cells; viral RNA by RT-qPCR at day 12 post infection; read-out: Cellular EC50
Procedure: HDV virus collected from the supernatants of HuH7-END cells was purified in the presence of 6% polyethylene glycol (PEG). Viral titer was then quantified by RT-qPCR using HDV specific primers against a reference standard. For HDV infection, HepG2-NTCP cells were seeded in 96-well plates at 60,000 cells/well. On the day of infection, compounds were 4-fold serially diluted in DMSO and pre-incubated with HepG2-NTCP cells for two hours before infecting with 800 GE/cell of HDV in 4% PEG. On day one post infection, HDV-containing media was aspirated, cells were washed once with PBS and then maintained in 2.5% DMSO containing media for the remainder of the assay. Viral RNA was isolated using RNeasy kits (Qiagen) at day 12 post infection and reverse transcribed into cDNA using High-Capacity RNA-to-cDNA Kit (Thermo Fisher). Relative HDV gene expression was quantified by RT-qPCR after normalization to expression of a housekeeping gene. Irrespective of readout, compound concentrations that reduce viral RNA by 50% relative to DMSO controls (EC50) are reported. EC50 ranges are as follows: A<0.1 μM; B 0.1-1 μM; C>1 μM.

NTCP = target: T1, NTCP (Homo sapiens, UniProt Q14973); test: HepG2-NTCP preS1 binding competition assay (FITC-labeled myristoylated preS1 peptide); details: HepG2-NTCP cells; competition with FITC-labeled preS1 peptide
T1 construct: expressed in transfected cells; host or cells: HepG2-NTCP (clone A3, kept under puromycin)
T1 sequence (Q14973 1-349): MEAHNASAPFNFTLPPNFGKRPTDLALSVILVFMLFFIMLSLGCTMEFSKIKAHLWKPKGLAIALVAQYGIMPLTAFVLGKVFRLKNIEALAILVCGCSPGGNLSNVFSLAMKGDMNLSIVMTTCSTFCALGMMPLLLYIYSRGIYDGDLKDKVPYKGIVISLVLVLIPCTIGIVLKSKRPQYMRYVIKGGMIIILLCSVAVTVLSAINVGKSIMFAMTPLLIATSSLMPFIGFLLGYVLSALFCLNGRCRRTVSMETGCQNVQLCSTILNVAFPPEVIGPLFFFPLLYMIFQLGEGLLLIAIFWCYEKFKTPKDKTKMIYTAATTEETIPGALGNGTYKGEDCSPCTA
Procedure: HepG2-NTCP preS1 Binding Competition Assay
Myristoylated preS1 peptide (2-48 aa) conjugated to a C-terminal FITC tag was synthesized to evaluate preS1 binding to NTCP-expressing cells. HepG2-NTCP cells seeded in 384-wells were pre-treated with compounds for 2 hours prior to the addition of FITC-labeled preS1 peptide. After co-incubation for 30 minutes, unbound FITC-preS1 peptide was washed twice with PBS, and the fluorescence of preS1-FITC bound to cell surface was detected by Envision plate reader. EC50 ranges are as follows: A<0.1 μM; B 0.1-1 μM; C>1 μM.

[3] = Donor 1, read-out: Cellular EC50 (μM) Donor 1
[4] = Donor 2, read-out: Cellular EC50 (μM) Donor 2

Row | Structure (SMILES) | EC50 (HDV [1]; [3]) | EC50 (HDV [1]; [4]) | EC50 (HBV) | EC50 (HDV [2]) | EC50 (NTCP)
1 | CN1[C@H](C2CCCCC2)CN(c2ccccc2)c2cc(Cl)c(-c3ccc(F)c(C(=O)O)c3)cc2S1(=O)=O [Example 25, (R)-5-(7-chloro-3-cyclohexyl-2-methyl-1,1-dioxido-5-phenyl-2,3,4,5-tetrahydrobenzo[f][1,2,5]thiadiazepin-8-yl)-2-fluorobenzoic acid] | < 0.1 µM | 0.1 to 1 µM | < 100 nM | < 100 nM | 
2 | CN1[C@H](C2CCCCC2)CN(c2ccccc2)c2cc(Cl)c(-c3cc(F)c(C(=O)O)s3)cc2S1(=O)=O [Example 116, (R)-5-(7-chloro-3-cyclohexyl-2-methyl-1,1-dioxido-5-phenyl-2,3,4,5-tetrahydrobenzo[f][1,2,5]thiadiazepin-8-yl)-3-fluorothiophene-2-carboxylic acid] | < 0.1 µM |  | < 100 nM | < 100 nM | < 100 nM
3 | Cc1cc(-c2cc3c(cc2Cl)N(c2ccccc2)C[C@@H](C2CCCCC2)N(C)S3(=O)=O)sc1C(=O)O [Example 126, (R)-5-(7-chloro-3-cyclohexyl-2-methyl-1,1-dioxido-5-phenyl-2,3,4,5-tetrahydrobenzo[f][1,2,5]thiadiazepin-8-yl)-3-methylthiophene-2-carboxylic acid] |  |  | < 100 nM | < 100 nM | 
4 | Cc1cc(-c2cc3c(cc2F)N(c2ccccc2)C[C@@H](C2CCCCC2)N(C)S3(=O)=O)sc1C(=O)O [Example 127, (R)-5-(3-cyclohexyl-7-fluoro-2-methyl-1,1-dioxido-5-phenyl-2,3,4,5-tetrahydrobenzo[f][1,2,5]thiadiazepin-8-yl)-3-methylthiophene-2-carboxylic acid] |  | < 0.1 µM | < 100 nM |  | < 100 nM
5 | CN1[C@H](C2CCCCC2)CN(c2ccccc2)c2cc(F)c(-c3cc(F)c(C(=O)O)s3)cc2S1(=O)=O [Example 128, (R)-5-(3-cyclohexyl-7-fluoro-2-methyl-1,1-dioxido-5-phenyl-2,3,4,5-tetrahydrobenzo[f][1,2,5]thiadiazepin-8-yl)-3-fluorothiophene-2-carboxylic acid] |  | < 0.1 µM | < 100 nM |  | 
6 | CN1[C@H](C2CCCCC2)CN(c2ccccc2)c2cc(OCc3ccsc3)c(-c3ccc(F)c(C(=O)O)c3)cc2S1(=O)=O [Example 336] | < 0.1 µM |  | < 100 nM |  | 
7 | CCCCCCCOc1cc2c(cc1-c1ccc(F)c(C(=O)O)c1)S(=O)(=O)N(C)[C@H](C1CCCCC1)CN2c1ccccc1 [Example 353] | < 0.1 µM |  | < 100 nM |  | 
8 | CN1[C@H](C2CCCCC2)CN(c2ccccc2)c2cc(OC3CC3)c(-c3ccc(F)c(C(=O)O)c3)cc2S1(=O)=O [Example 372] | < 0.1 µM |  | < 100 nM |  | 
9 | CN1[C@H](C2CCCCC2)CN(c2ccccc2)c2cc(OC3CCC3)c(-c3ccc(F)c(C(=O)O)c3)cc2S1(=O)=O [Example 376] | < 0.1 µM |  | < 100 nM |  | 
10 | Cc1cc(-c2cc3c(cc2OCc2ccsc2)N(c2ccccc2)C[C@@H](C2CCCCC2)N(C)S3(=O)=O)sc1C(=O)O [Example 514] | < 0.1 µM | < 0.1 µM | < 100 nM |  | 

Source: US20240368096A1 (Enanta Pharmaceuticals, Inc., priority 2022, published 2024)
